Tested on: MV-4-11 cells
Assay: Gene expression microarray analysis (Affymetrix PrimeView) and GSEA
Format: cell-based, human
Set-up: RFU PODN (11730768_x_at) / Fold change /veh PODN (11730768_x_at) / RFU LINC00158 (11744669_a_at) / Fold change /veh LINC00158 (11744669_a_at) / RFU DUSP10 (11751237_a_at) / Fold change /veh DUSP10 (11751237_a_at) / RFU ID3 (11757404_x_at) / Fold change /veh ID3 (11757404_x_at) / RFU PLEKHG5 (11737974_s_at) / Fold change /veh PLEKHG5 (11737974_s_at) / RFU LRRC4B (11730491_at) / Fold change /veh LRRC4B (11730491_at) / RFU GIMAP4 (11747438_a_at) / Fold change /veh GIMAP4 (11747438_a_at) / RFU KRT8 (11758183_x_at) / Fold change /veh KRT8 (11758183_x_at) / RFU CNN1 (11734310_a_at) / Fold change /veh CNN1 (11734310_a_at) / RFU VPS37D (11726825_at) / Fold change /veh VPS37D (11726825_at) / RFU C10orf10 (11716522_x_at) / Fold change /veh C10orf10 (11716522_x_at) / RFU KIR2DL2 /// KIR2DL4 /// KIR2DL5A /// KIR2DL5B /// KIR2DS1 /// KIR2DS2 /// KIR2DS3 /// KIR2DS4 /// KIR3DL3 /// KIR3DL3 /// KIR3DS1 (11738374_at) / Fold change /veh KIR2DL2 /// KIR2DL4 /// KIR2DL5A /// KIR2DL5B /// KIR2DS1 /// KIR2DS2 /// KIR2DS3 /// KIR2DS4 /// KIR3DL3 /// KIR3DL3 /// KIR3DS1 (11738374_at) / RFU C1QL1 (11718748_at) / Fold change /veh C1QL1 (11718748_at) / RFU TMPRSS4 (11747572_a_at) / Fold change /veh TMPRSS4 (11747572_a_at) / RFU HAMP (11756126_x_at) / Fold change /veh HAMP (11756126_x_at) / RFU RNFT2 (11725882_a_at) / Fold change /veh RNFT2 (11725882_a_at) / RFU NR4A2 (11747474_a_at) / Fold change /veh NR4A2 (11747474_a_at) / RFU ABCC12 (11746883_a_at) / Fold change /veh ABCC12 (11746883_a_at) / RFU TMEM136 (11760407_x_at) / Fold change /veh TMEM136 (11760407_x_at) / RFU CLDN22 /// WWC2 (11732394_at) / Fold change /veh CLDN22 /// WWC2 (11732394_at) / RFU HLA-DPB1 (11760878_x_at) / Fold change /veh HLA-DPB1 (11760878_x_at) / RFU SPINT1 (11716480_a_at) / Fold change /veh SPINT1 (11716480_a_at) / RFU GAP43 (11754022_s_at) / Fold change /veh GAP43 (11754022_s_at) / RFU A4GNT (11735810_at) / Fold change /veh A4GNT (11735810_at) / RFU PRB3 (11715151_x_at) / Fold change /veh PRB3 (11715151_x_at) / RFU TUBB4B (11761932_at) / Fold change /veh TUBB4B (11761932_at) / RFU CAPN14 (11732068_a_at) / Fold change /veh CAPN14 (11732068_a_at) / RFU TMCC2 (11721928_a_at) / Fold change /veh TMCC2 (11721928_a_at) / RFU IRGQ (11745062_a_at) / Fold change /veh IRGQ (11745062_a_at) / RFU FAM174B (11720279_a_at) / Fold change /veh FAM174B (11720279_a_at) / RFU TMPRSS4 (11748680_a_at) / Fold change /veh TMPRSS4 (11748680_a_at) / RFU FAM212B (11763350_a_at) / Fold change /veh FAM212B (11763350_a_at) / RFU PLEKHG5 (11743358_a_at) / Fold change /veh PLEKHG5 (11743358_a_at) / RFU ZSCAN30 (11745921_a_at) / Fold change /veh ZSCAN30 (11745921_a_at) / RFU CMKLR1 (11741424_a_at) / Fold change /veh CMKLR1 (11741424_a_at) / RFU LOC101060620 /// MAPK8IP1 (11723275_at) / Fold change /veh LOC101060620 /// MAPK8IP1 (11723275_at) / RFU SPTSSB (11747773_x_at) / Fold change /veh SPTSSB (11747773_x_at) / RFU PRSS12 (11739890_at) / Fold change /veh PRSS12 (11739890_at) / RFU BIN1 (11741810_x_at) / Fold change /veh BIN1 (11741810_x_at) / RFU WNT11 (11732464_a_at) / Fold change /veh WNT11 (11732464_a_at) / RFU C10orf10 (11716521_a_at) / Fold change /veh C10orf10 (11716521_a_at) / RFU C5orf56 (11738089_at) / Fold change /veh C5orf56 (11738089_at) / RFU CYB561 (11721691_x_at) / Fold change /veh CYB561 (11721691_x_at) / RFU ANKRD19P (11752326_a_at) / Fold change /veh ANKRD19P (11752326_a_at) / RFU OR2T12 /// OR2T33 /// OR2T8 (11738714_s_at) / Fold change /veh OR2T12 /// OR2T33 /// OR2T8 (11738714_s_at) / RFU VCAN (11748164_a_at) / Fold change /veh VCAN (11748164_a_at) / RFU JSRP1 (11732532_at) / Fold change /veh JSRP1 (11732532_at) / RFU KRTAP10-11 (11738290_x_at) / Fold change /veh KRTAP10-11 (11738290_x_at) / RFU MYO3A (11730013_a_at) / Fold change /veh MYO3A (11730013_a_at) / RFU EBF3 (11725865_a_at) / Fold change /veh EBF3 (11725865_a_at) / RFU CAMK2N1 (11719241_x_at) / Fold change /veh CAMK2N1 (11719241_x_at) / RFU C5orf56 (11738088_a_at) / Fold change /veh C5orf56 (11738088_a_at) / RFU OLFML3 (11715873_a_at) / Fold change /veh OLFML3 (11715873_a_at) / RFU LOC100653217 /// NTM (11731650_a_at) / Fold change /veh LOC100653217 /// NTM (11731650_a_at) / RFU MAPK11 (11762145_a_at) / Fold change /veh MAPK11 (11762145_a_at) / RFU FIZ1 (11724087_x_at) / Fold change /veh FIZ1 (11724087_x_at) / RFU OASL (11726364_x_at) / Fold change /veh OASL (11726364_x_at) / RFU SOX15 (11748057_x_at) / Fold change /veh SOX15 (11748057_x_at) / RFU CD79A (11719716_a_at) / Fold change /veh CD79A (11719716_a_at) / RFU HIST1H1D (11736915_at) / Fold change /veh HIST1H1D (11736915_at) / RFU CASKIN2 (11723855_a_at) / Fold change /veh CASKIN2 (11723855_a_at) / RFU LOC730098 (11760151_x_at) / Fold change /veh LOC730098 (11760151_x_at) / RFU OR4N2 (11742367_at) / Fold change /veh OR4N2 (11742367_at) / RFU PRRT2 (11749266_a_at) / Fold change /veh PRRT2 (11749266_a_at) / RFU SNX32 (11753110_a_at) / Fold change /veh SNX32 (11753110_a_at) / RFU CDHR5 (11726645_a_at) / Fold change /veh CDHR5 (11726645_a_at) / RFU RCAN1 (11760418_a_at) / Fold change /veh RCAN1 (11760418_a_at) / RFU FAM167A (11723789_a_at) / Fold change /veh FAM167A (11723789_a_at) / RFU FAM26E (11764081_at) / Fold change /veh FAM26E (11764081_at) / RFU ISYNA1 (11749810_s_at) / Fold change /veh ISYNA1 (11749810_s_at) / RFU ACY1 (11761880_at) / Fold change /veh ACY1 (11761880_at) / RFU 11764098_at / Fold change /veh 11764098_at / RFU SAMD14 (11745864_x_at) / Fold change /veh SAMD14 (11745864_x_at) / RFU NPB (11741838_a_at) / Fold change /veh NPB (11741838_a_at) / RFU TMPRSS6 (11731388_a_at) / Fold change /veh TMPRSS6 (11731388_a_at) / RFU KRTAP10-2 (11738614_at) / Fold change /veh KRTAP10-2 (11738614_at) / RFU ARHGAP8 /// PRR5-ARHGAP8 (11727945_x_at) / Fold change /veh ARHGAP8 /// PRR5-ARHGAP8 (11727945_x_at) / RFU KRTAP5-7 /// NADSYN1 (11734609_at) / Fold change /veh KRTAP5-7 /// NADSYN1 (11734609_at) / RFU RASL12 (11751679_a_at) / Fold change /veh RASL12 (11751679_a_at) / RFU CDKN2B (11736163_a_at) / Fold change /veh CDKN2B (11736163_a_at) / RFU PRF1 (11729649_at) / Fold change /veh PRF1 (11729649_at) / RFU, ZNF638 /// ZNF638-IT1 / Fold change vs veh, ZNF638 /// ZNF638-IT1 / RFU, PANK3 / Fold change vs veh, PANK3 / RFU, SH3YL1 / Fold change vs veh, SH3YL1 / RFU, ZEB2 / Fold change vs veh, ZEB2 / RFU, NRIP1 / Fold change vs veh, NRIP1 / RFU, PTTG1IP / Fold change vs veh, PTTG1IP / RFU, CAPN2 / Fold change vs veh, CAPN2 / RFU, MED14 / Fold change vs veh, MED14 / RFU, SNORA58 / Fold change vs veh, SNORA58 / RFU, C1orf63 / Fold change vs veh, C1orf63 / RFU, LRRFIP1 / Fold change vs veh, LRRFIP1 / RFU, NDUFAF7 / Fold change vs veh, NDUFAF7 / RFU, SLC12A2 / Fold change vs veh, SLC12A2 / RFU, IBTK / Fold change vs veh, IBTK / RFU, ESF1 / Fold change vs veh, ESF1 / Fold change vs veh, TMEM50B / RFU, TAOK1 / Fold change vs veh, TAOK1 / RFU, ACBD3 / Fold change vs veh, ACBD3 / RFU, TMA16 / Fold change vs veh, TMA16 / RFU, RWDD3 / Fold change vs veh, RWDD3 / RFU, BCAT1 / Fold change vs veh, BCAT1 / RFU, EDEM3 / Fold change vs veh, EDEM3 / RFU, TMEM33 / Fold change vs veh, TMEM33 / RFU, WDR75 / Fold change vs veh, WDR75 / RFU, AHCTF1 / Fold change vs veh, AHCTF1 / RFU, TFRC / Fold change vs veh, TFRC / RFU, ZDHHC17 / Fold change vs veh, ZDHHC17 / RFU, NOM1 / Fold change vs veh, NOM1 / RFU, ARL8B / Fold change vs veh, ARL8B / RFU, ZBTB11 / Fold change vs veh, ZBTB11 / RFU, TAMM41 / Fold change vs veh, TAMM41 / RFU, KIAA1704 /// LOC100996395 / Fold change vs veh, KIAA1704 /// LOC100996395 / RFU, ING1 / Fold change vs veh, ING1 / RFU, TRMT61B / Fold change vs veh, TRMT61B / RFU, FUBP3 / Fold change vs veh, FUBP3 / RFU, TP53 / Fold change vs veh, TP53 / RFU, TNKS2 / Fold change vs veh, TNKS2 / RFU, ZFP14 / Fold change vs veh, ZFP14 / RFU, ACTR2 / Fold change vs veh, ACTR2 / RFU, PPP3R1 / Fold change vs veh, PPP3R1 / RFU, PIK3R1 / Fold change vs veh, PIK3R1 / RFU, HNRNPA1 / Fold change vs veh, HNRNPA1 / RFU, RNF170 / Fold change vs veh, RNF170 / RFU, ZNF28 / Fold change vs veh, ZNF28 / RFU, RNGTT / Fold change vs veh, RNGTT / RFU, OGT / Fold change vs veh, OGT / RFU, BRD1 / Fold change vs veh, BRD1 / RFU, MARS / Fold change vs veh, MARS / RFU, ZNF655 / Fold change vs veh, ZNF655 / RFU, FAHD1 / Fold change vs veh, FAHD1 / RFU, BDP1 / Fold change vs veh, BDP1 / RFU, LRRCC1 / Fold change vs veh, LRRCC1 / RFU, ARID1A / Fold change vs veh, ARID1A / RFU, ZNF146 / Fold change vs veh, ZNF146 / RFU, ZNF330 / Fold change vs veh, ZNF330 / RFU, GPN3 / Fold change vs veh, GPN3 / RFU, C9orf123 / Fold change vs veh, C9orf123 / RFU, N4BP2L2 / Fold change vs veh, N4BP2L2 / RFU, ARFIP1 / Fold change vs veh, ARFIP1 / RFU, FAM179B / Fold change vs veh, FAM179B / RFU, BCL10 / Fold change vs veh, BCL10 / RFU, UHRF1BP1L / Fold change vs veh, UHRF1BP1L / RFU, BET1 / Fold change vs veh, BET1 / RFU, CNOT2 / Fold change vs veh, CNOT2 / RFU, ZNF268 / Fold change vs veh, ZNF268 / Fold change vs veh, ZNF507 / RFU, DGCR2 / Fold change vs veh, DGCR2 / RFU, WDSUB1 / Fold change vs veh, WDSUB1 / Fold change vs veh, HSP90B1 /// MIR3652 / RFU, ADSS / Fold change vs veh, ADSS / RFU, GK / Fold change vs veh, GK / RFU, ZNF148 / Fold change vs veh, ZNF148 / RFU, TAF9 / Fold change vs veh, TAF9 / RFU, SLC1A5 / Fold change vs veh, SLC1A5 / RFU, SLMO2 / Fold change vs veh, SLMO2 / RFU, ABCC4 / Fold change vs veh, ABCC4 / RFU, LOC101060439 /// RAP1B / Fold change vs veh, LOC101060439 /// RAP1B / RFU, RFX7 / Fold change vs veh, RFX7 / RFU, GTPBP10 / Fold change vs veh, GTPBP10 / RFU, CNEP1R1 / Fold change vs veh, CNEP1R1 / RFU, BIVM-ERCC5 /// ERCC5 / Fold change vs veh, BIVM-ERCC5 /// ERCC5 / RFU, ILF3 / Fold change vs veh, ILF3 / RFU 11762660_at / Fold change /veh 11762660_at / RFU VCAN (11757783_s_at) / Fold change /veh VCAN (11757783_s_at) / RFU DDX43 (11728927_at) / Fold change /veh DDX43 (11728927_at) / RFU KRT8 (11758188_x_at) / Fold change /veh KRT8 (11758188_x_at) / RFU NKD1 (11759106_at) / Fold change /veh NKD1 (11759106_at) / RFU SRD5A1 (11742802_a_at) / Fold change /veh SRD5A1 (11742802_a_at) / RFU TPSAB1 /// TPSB2 (11721975_s_at) / Fold change /veh TPSAB1 /// TPSB2 (11721975_s_at) / RFU GSTM3 (11746129_a_at) / Fold change /veh GSTM3 (11746129_a_at) / RFU IL23R (11737362_x_at) / Fold change /veh IL23R (11737362_x_at) / RFU TMEM51 (11727254_a_at) / Fold change /veh TMEM51 (11727254_a_at) / RFU PIWIL2 (11732686_x_at) / Fold change /veh PIWIL2 (11732686_x_at) / RFU ORM1 (11744905_x_at) / Fold change /veh ORM1 (11744905_x_at) / RFU CCDC152 (11743942_at) / Fold change /veh CCDC152 (11743942_at) / RFU ECM1 (11717891_a_at) / Fold change /veh ECM1 (11717891_a_at) / RFU IL23R (11748794_a_at) / Fold change /veh IL23R (11748794_a_at) / RFU TNFAIP8L3 (11732012_x_at) / Fold change /veh TNFAIP8L3 (11732012_x_at) / RFU MBOAT4 (11741988_at) / Fold change /veh MBOAT4 (11741988_at) / RFU 11764193_at / Fold change /veh 11764193_at / RFU TMEM53 (11763286_at) / Fold change /veh TMEM53 (11763286_at) / RFU MAGEB2 (11727129_at) / Fold change /veh MAGEB2 (11727129_at) / RFU TMEM200A (11744735_a_at) / Fold change /veh TMEM200A (11744735_a_at) / RFU CCDC152 (11751479_a_at) / Fold change /veh CCDC152 (11751479_a_at) / RFU FAM211A (11726209_a_at) / Fold change /veh FAM211A (11726209_a_at) / RFU RGS16 (11746705_a_at) / Fold change /veh RGS16 (11746705_a_at) / RFU VCAN (11755009_s_at) / Fold change /veh VCAN (11755009_s_at) / RFU RHOB (11743442_s_at) / Fold change /veh RHOB (11743442_s_at) / RFU RGS16 (11720943_a_at) / Fold change /veh RGS16 (11720943_a_at) / RFU RGS16 (11720944_at) / Fold change /veh RGS16 (11720944_at) / RFU, VPS4B / Fold change vs veh, VPS4B / RFU, CREB1 / Fold change vs veh, CREB1 / RFU, DNAJC13 / Fold change vs veh, DNAJC13 / RFU, GNAQ / Fold change vs veh, GNAQ / RFU, CDK5R1 / Fold change vs veh, CDK5R1 / RFU, ZRANB3 / Fold change vs veh, ZRANB3 / RFU, CUL4A / Fold change vs veh, CUL4A / RFU, CCNY / Fold change vs veh, CCNY / RFU, UFL1 / Fold change vs veh, UFL1 / RFU, COG3 / Fold change vs veh, COG3 / RFU, DIAPH2 / Fold change vs veh, DIAPH2 / RFU, SKA2 / Fold change vs veh, SKA2 / RFU, AFF3 / Fold change vs veh, AFF3 / RFU, LMF1 / Fold change vs veh, LMF1 / RFU, IPO11 / Fold change vs veh, IPO11 / RFU, DFFB / Fold change vs veh, DFFB / RFU, FOXP1 / Fold change vs veh, FOXP1 / RFU, CARD8 / Fold change vs veh, CARD8 / RFU, STRN3 / Fold change vs veh, STRN3 / RFU, ADK / Fold change vs veh, ADK / RFU, RASSF2 / Fold change vs veh, RASSF2 / RFU, WIPF1 / Fold change vs veh, WIPF1 / RFU, LARP1B / Fold change vs veh, LARP1B / RFU, RASA1 / Fold change vs veh, RASA1 / RFU, RB1 / Fold change vs veh, RB1 / RFU, PPFIA1 / Fold change vs veh, PPFIA1 / RFU, MAT2A / Fold change vs veh, MAT2A / RFU, CCT5 / Fold change vs veh, CCT5 / RFU, WDR92 / Fold change vs veh, WDR92 / RFU, CUX1 / Fold change vs veh, CUX1 / RFU, TTC7A / Fold change vs veh, TTC7A / RFU, TMEM135 / Fold change vs veh, TMEM135 / RFU, DEPTOR / Fold change vs veh, DEPTOR / RFU, CPM / Fold change vs veh, CPM / RFU, DNAJB6 / Fold change vs veh, DNAJB6 / RFU, CACNA2D3 / Fold change vs veh, CACNA2D3 / RFU, DTX4 / Fold change vs veh, DTX4 / RFU, TFCP2 / Fold change vs veh, TFCP2 / RFU, GMCL1 /// GMCL1P1 / Fold change vs veh, GMCL1 /// GMCL1P1 / RFU, AEBP2 / Fold change vs veh, AEBP2 / RFU, SNHG1 /// SNORD22 /// SNORD25 /// SNORD26 /// SNORD27 /// SNORD28 /// SNORD29 /// SNORD31 / Fold change vs veh, SNHG1 /// SNORD22 /// SNORD25 /// SNORD26 /// SNORD27 /// SNORD28 /// SNORD29 /// SNORD31 / Fold change (Aza/veh), C12orf56 (ProbeSet 11735607_a_at) / Fold change (ACY-1035/veh), C12orf56 (ProbeSet 11735607_a_at) / Fold change (Aza/veh), FGFR1OP (ProbeSet 11751329_s_at) / Fold change (ACY-1035/veh), FGFR1OP (ProbeSet 11751329_s_at) / Fold change (Aza/veh), VPS36 (ProbeSet 11739960_a_at) / Fold change (ACY-1035/veh), VPS36 (ProbeSet 11739960_a_at) / RFU SYPL1 (11715823_x_at) / Fold change /veh SYPL1 (11715823_x_at) / RFU IGFBP7 (11715501_s_at) / Fold change /veh IGFBP7 (11715501_s_at) / RFU REEP3 (11722064_at) / Fold change /veh REEP3 (11722064_at) / RFU IGLL1 (11728026_x_at) / Fold change /veh IGLL1 (11728026_x_at): dose or concentration left out as unconfirmed
Details: MV-4-11 cells, 48 hours

## Nc1ncn([C@@H]2O[C@H](CO)[C@@H](O)[C@H]2O)c(=O)n1 [azacitidine]
  Fold change /veh 11764193_at: 1.69
